From paper PMC12525431, “Hsp70 Peptides Induce TREM-1-Dependent and TREM-1-Independent Activation of Cytotoxic Lymphocytes” (International Journal of Molecular Sciences, 2025)
Entries after “also recorded” stand apart in the source; their conditions may differ. Like-named read-outs stand apart in the source and are kept apart here. Ends that are not written are not given here.

What was measured:
TREM-1 [1] = biological target: T1, TREM-1 (Homo sapiens, UniProt Q9NP99); test: Microscale thermophoresis, binding to TREM-1; details: sTREM-1 labeled with Alexa Fluor 488, 30 min in the dark at room temperature, 16 concentrations by sequential dilution, Monolith NT 115, 8% IR laser power, at least three replicates
T1 construct: causes dissociation of the TREM-1 exocellular domain; made in house
T1 sequence (Q9NP99 21-205 limits assumed): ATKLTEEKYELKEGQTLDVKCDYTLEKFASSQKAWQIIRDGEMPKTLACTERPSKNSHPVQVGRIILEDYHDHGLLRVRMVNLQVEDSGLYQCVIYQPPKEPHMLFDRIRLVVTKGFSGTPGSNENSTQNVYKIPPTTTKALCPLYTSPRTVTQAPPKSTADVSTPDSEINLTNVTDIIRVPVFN
Protocol: The purified sTREM-1 protein was labeled using an Alexa FluorTM 488 Protein Labeling Kit (Life Technologies Corporation, Eugene, OR, USA) in accordance with the manufacturer’s protocol.
The N7 peptide and TKD (C = 200 nM for all) were incubated for 30 min in the dark at room temperature in 16 different concentrations obtained through sequential dilution, starting with the highest soluble concentration. The samples were transferred to glass capillaries (Monolith NT Capillaries, NanoTemper Technologies GmbH, München, Germany) and then analyzed using a Nano-Temperature Monolith NT 115 device (8% IR laser power). The signal quality was monitored using a NanoTemper Monolith device to detect possible autofluorescence of the ligand, aggregation, or changes in the photobleaching rate. The experiments were carried out in at least three replicates and processed using affinity analysis software (MO Control v.1.6.1, NanoTemper Technologies GmbH, München, Germany).

K562 cells = test: Cytotoxicity of activated PBMC/lymphocytes against K562 cells (Cytotox 96); assay type: cell-based, human
Protocol: (§1) Human leukemic cell line K562 and THP-1 cell line were cultured in RPMI-1640 (Himedia Laboratories Private Limited, Maharashtra, India) and 10% FCS (Cytiva Livescience™, Marlborough, MA, USA). This cell line was obtained from the cell line collection of N. N. Blokhin National Medical Research Center of Oncology of the Ministry of Health of Russia. […] The cells were sorted using sets of magnetic beads for isolation of CD14+, CD16+, CD56+, CD8+, and CD4+ according to the manufacturer’s protocol (all were produced by Thermo Fisher Scientific, Waltham, MA, USA).
(§2) For cytotoxicity tests, cells of the K562 line were cultured in 96-well plates (Guangzhou Jet Bio-Filtration Co., Guangzhou, China) (6 × 10^4 per well) mixed with lymphocytes added at a 20:1 ratio and incubated at 37 °C in a 5% CO2 atmosphere for 3 to 24 h). In the inhibition assays, cells were pre-incubated for 1 h with the LP17 ([…]) (Thermo Fisher Scientific, Boston, MA, USA), abTREM1 (ABclonal, Woburn, MA, USA), anti-NKG2D, anti-granzyme B, caspase 3 inhibitor Ac-IEID-CHO, RIP1 kinase inhibitor necrostatin1, TLR4 inhibitor, anti-MicA, anti-FasL, anti-CD94 antibody (concentration was 20 μg/mL for all inhibitors and all from Thermo Fisher Scientific, Waltham, MA, USA) and then the lymphocytes were added.
(§3) Cytotoxicity was measured using a Cytotox 96 analysis kit (Promega, Madison, WI, USA) after 24 h of incubation in accordance with the manufacturer’s protocol.

CD94 receptor = test: Interaction with CD94 receptor (judged from PBMC cytotoxicity); assay type: cell-based, human; details: concluded from cytotoxicity experiments
Protocol: as §1
For cytotoxicity tests, cells of the K562 line were cultured in 96-well plates (Guangzhou Jet Bio-Filtration Co., Guangzhou, China) (6 × 10^4 per well) mixed with lymphocytes added at a 20:1 ratio and incubated at 37 °C in a 5% CO2 atmosphere for 3 to 24 h). […]
as §3

TREM-1 [2] = biological target: T1, TREM-1; test: Interaction with / dependence on TREM-1 (judged from cytotoxicity blocking and binding experiments); assay type: cell-based; details: for effect on interaction of TREM-1 with its ligands: ligands N7 peptide, HMGB1, full-length Hsp70, judged from PBMC cytotoxicity
Protocol: as §1, §2, §3

TREM-1 [3] = biological target: T1, TREM-1; details: cited from earlier work
HLA-negative tumor cells = details: cited from earlier work
ICR mice = test: LPS-induced sepsis in mice, survival; assay type: in vivo; details: N7.1 120 µg per mouse i.v. 1 h after LPS
Protocol: Female ICR mice weighing 25 ± 1.1 g (7-week-old) were obtained from the Animal Breeding Facility of IBCh RAS (Bioresource Collection supported by the Ministry of Science and Higher Education of the Russian Federation, contract No. 075-15-2025-486). During the experiment, all mice were maintained in a specific pathogen-free (SPF) state under a strict light cycle (lights on at 07:00 h and off at 19:00 h), at 22 ± 2 °C and 50 ± 10% relative humidity. Animals were provided ad libitum access to a standard laboratory autoclavable rodent diet.
Twenty-one mice were used for the present study. The animals were randomly assigned to three groups with seven animals in each group: (1) control, intact animals; (2) intravenous injection of physiological saline (100 μL 0.9% NaCl) as a placebo during LPS-induced sepsis; (3) intravenous injection of peptide N7.1 (120 µg in 100 µL saline per mouse) during LPS-induced sepsis. LPS-induced sepsis was stimulated by an intraperitoneal injection of 0.6 mg lipopolysaccharides from Salmonella enterica Serotype Typhimurium (Sigma-Aldrich Co., St. Louis, MO, USA). Due to the small fluctuation in animal weight, weight-based dosing of LPS was not used. Drug treatment (saline or peptide N7.1) was carried out 1 h after LPS-induced sepsis.

[4] = 4th day of PBMC incubation with N7, magnetic separation, K562, n = 5
[5] = 6th day of PBMC incubation with N7, magnetic separation, K562, n = 5

CC(C)C[C@H](NC(=O)[C@H](CC(C)C)NC(=O)[C@H](CC(N)=O)NC(=O)[C@H](CC(N)=O)NC(=O)[C@H](CC(=O)O)NC(=O)[C@H](CCCCN)NC(=O)[C@@H](N)[C@@H](C)O)C(=O)NCC(=O)N[C@@H](CCCNC(=N)N)C(=O)N[C@@H](Cc1ccccc1)C(=O)N[C@@H](CCC(=O)O)C(=O)N[C@@H](CC(C)C)C(=O)N[C@@H](CO)C(=O)NCC(=O)O [TKD]
Kd (TREM-1 [1]): 3 µM

CN1C(=O)C(Cc2c[nH]c3ccccc23)NC1=S (centres unmarked) [inhibitor of RIP1 kinase, necrostatin1, reference compound]
effect of inhibitor on cytotoxic signal (K562 cells; CD8+ and CD4+ T lymphocytes activated by N7, 6 days, inhibitor pre-incubated 1 h (20 μg/mL), K562 3 or 24 h, n = 5): prevent the induction of cytotoxic signal

AMTKDNNLLGR [N9, 11-membered peptide from fraction No. 9; can be considered as a shortened TKD peptide]
lymphocyte populations activated (K562 cells; human PBMC ex vivo with peptide, K562 target cells): activates CD94+ NK cells
interaction with CD94 receptor (CD94 receptor): interact with the CD94 receptor
interaction with TREM-1 (TREM-1 [2]; concluded from LP17 blocking and binding experiments): does not interact with the TREM-1 receptor

Ac-IEID-aldehyde [caspase 3 inhibitor, reference compound]
effect of inhibitor on activity of NK cells (K562 cells; NK cells activated by N7, inhibitor pre-incubated 1 h (20 μg/mL), K562, n = 5): blocked

Hsp70: recombinant human Hsp70, expressed in Escherichia coli M15
TREM-1 ligand (TREM-1 [3]; ref [19]): ligand of the TREM-1 innate immunity receptor
activation of cytotoxic lymphocytes (HLA-negative tumor cells): activates TREM-1-dependent and TREM-1-independent cytotoxic lymphocytes that kill HLA-negative tumor cells

LQVTDSGLYRCVIYHPP [LP17, reference compound]
TREM-1 signaling inhibition (TREM-1 [3]; ref [24]): TREM-1 signaling inhibitor

PGLYRP1: innate immunity protein PGLYRP1, TREM-1 ligand
TREM-1 ligand (TREM-1 [3]; ref [30],[31],[32],[33]): TREM-1 ligands

SDNQPGVL [N7.1, N-terminal fragment of N7 peptide]
effect on lymphocyte activation by TREM-1 ligands (K562 cells; PBMC pre-incubated with shortened peptide, then N7 peptide, HMGB1 or Hsp70 for 6 days, K562 24 h): blocks the activation of lymphocytes by all the ligands studied
effect in development of sepsis (ICR mice; LPS-induced sepsis in mice): protective effects in the development of sepsis in mice
surviving animals (survival rate) (ICR mice; female ICR mice, n = 7, 0.6 mg S. enterica LPS i.p., observed to 120 h, saline 29%): 86%
effect on interaction of TREM-1 with its ligands (TREM-1 [2]): inhibits the interaction of TREM-1 with its ligands; also recorded: prevent interaction of the TREM-1 receptor with its ligands in vitro
effect on interaction of TREM-1 with its ligands (TREM-1 [2]; listed as SDNQPGVL): competes with other ligands

SDNQPGVLIQVYEGEK [N7]
cytotoxic activity of CD4+ T lymphocytes (K562 cells; [4]): activated
cytotoxic activity of CD8+ T lymphocytes (K562 cells; [4]): No traces of cytotoxic activity
cytotoxic activity of NK cells (K562 cells; [4]): reached their maximum activity
cytotoxic activity of CD4+ T lymphocytes (K562 cells; [5]): remained
cytotoxic activity of CD8+ T lymphocytes (K562 cells; [5]): appeared
cytotoxic activity of NK cells (K562 cells; [5]): completely disappeared
induction of cytotoxic lymphocytes (K562 cells; PBMC 6 days with synthetic peptide (10^−9 M), MHC-negative K562 cells 24 h, n = 5): cytotoxic lymphocytes appear in the population, killing MHC-negative K562 tumor cells

actin
TREM-1 ligand (TREM-1 [3]; ref [30],[31],[32],[33]): TREM-1 ligands
